Results on 1 substance are retold here after patent US10675306B2, “Adrenomedullin therapy to improve fetal implantation” (The University of North Carolina at Chapel Hill, priority 2015, dated 2020).

Holding throughout (format): in vivo
Assay [1] relates to wild-type mice. Put plainly: Pinopode formation and size in uteri treated for 30 min (scanning electron micrographs). The note with it: AM 150 pmol, vs vehicle. As for the experimental part: A, Scanning electron micrographs of pinopodes in wild type uteri treated with vehicle, AM, or AM+AM(24-50) for 30 minutes. Scale bars, 5 μm. B-D, Quantitation of pinopodes per field (B), size (C), and percent area of field (D). n=3 animals, n>4 fields per animal. ***p<0.001, unpaired t test.
The effect of AM on pinopode formation and size was studied. Wild-type mice were treated with vehicle, AM (150 pmol), or AM (150 pmol)+AM(24-50) (2 nmol) for 30 min and the amount and size of pinopodes was quantitated (FIGS. 3A-3D).

A further assay deals with BalbC mice. As to the kind of experiment: Blastocyst transfer after intrauterine injection: number and spacing of viable implantation sites. Particulars: AM 150 pmol into lumen of each uterine horn, day 2.5 of pseudopregnancy, evaluated three days post-transfer, vs vehicle. An excerpt:
A, Images of e6.5 embryos within uteri treated with vehicle, AM, or AM+AM(24-50) prior to transfer of 8 blastocysts per horn. Arrowheads indicate viable implantation sites as determined by uptake of Evans blue dye. Scale bar, 1 cm. B, Quantitation of viable implant sites per horn. ns, not significant. *p<0.05, Mann-Whitney test. C, Illustration of quantitation method for spacing of e6.5 embryos within uterine horns. SD, standard deviation. D, Quantitation of spacing using method depicted in (C). *p<0.05, unpaired t test.
It was hypothesized that administration of AM, an endocrine factor critical for a healthy pregnancy, to female mice would improve uterine receptivity and implantation rates. […] Dams were euthanized three days later, and the number and spacing of the viable implantation sites were evaluated.
Using this conceptually simple but elegant in vivo experiment, it was concluded that delivery of AM directly into the uterine lumen prior to the establishment of pregnancy promotes blastocyst implantation. This conclusion was arrived at by quantitating the number and spacing of viable implantation sites in uterine horns that were treated with either vehicle or AM prior to blastocyst transfer.

Assay [2] has as its system wild-type mice. Put plainly: Rate of pinopode formation throughout a treatment time course. Particulars: AM 150 pmol, days 2.5-3.5 of pseudopregnancy, vs vehicle. As for the experimental part: A, Scanning electron micrographs of vehicle- and AM-treated uteri throughout treatment time course. Scale bars, 1 μm. B, Quantitation of pinopodes per field throughout treatment time course. *p<0.05 at indicated time point, unpaired t test.
Further studies were performed to measure the effect of AM (150 pmol) on the rate of pinopode formation. The number of pinopodes was quantitated throughout a time course of AM treatment in wild-type mice (FIGS. 4A-4B).

“Also recorded” adds a separate entry of the source. Positions of bridges follow the written chain, without caps; N, C: chain ends. No end group written: not given here.

Consider “adrenomedullin (YRQSMNNFGGLRSFGCRFGTCTVQKLAHQIYQFTDKDKDNVAPRSKISPQGY; disulfide 16-21 (inferred); ends not checked; listed as Homo sapiens) [AM, peptide vasodilator]”, for which, in the assay on wild-type mice [1], the “pinopode formation (pinopodes per field)” value is given as “promotes pinopode formation”; the pinopode size result is “promotes pinopode formation and size”. Also, in the assay with BalbC mice (8 blastocysts per horn 5-10 min later), the “number of viable implantation sites per horn” value is on record as “improves implantation success; also recorded: significantly more embryo implantation sites; also recorded: significantly more viable implantation sites”. Also, the “spacing of viable implantation sites” value in the assay on BalbC mice (8 blastocysts per horn) was “improves implantation success and spacing; also recorded: evenly distributed throughout the length of the horn; also recorded: more evenly distributed throughout the length of the horn”. In the assay with wild-type mice [2], the “rate of pinopode formation (pinopodes per field over time course)” value was “accelerates pinopode formation”.
